Drawing on paper PMC12040169 (PLOS Biology, 2025), this text covers viability for 80 molecules.

This series in a line: in vitro. The settings on record: human, hela cells, % viability.

Broadly, the viability is a read-out of living cells in per cent, often relative to untreated cells. As to `O=C(NCc1nnc(-c2cccs2)o1)c1cccc(-c2ccc(F)cc2)c1` [CBK286296], the viability at 28.5 h, 10 µM was 86.9%.
As to `COCCC(=O)N1C[C@@H](c2ccccc2F)[C@@]2(CCCC(=O)N2)C1` [CBK283360], the viability at 28.5 h, 10 µM is 90.4%.
`O=C(O)CCCNC(=O)COc1ccccc1OCC(=O)NCCCC(=O)O` [CBK296089]: the viability at 28.5 h, 10 µM is 90%.
Turning to `O=[N+]([O-])c1ccc(CN2CCC(Oc3nccnc3OCc3cccnc3)CC2)cc1` [CBK083162T], the viability at 28.5 h, 10 µM amounted to 95.8%.
As for `O=C1CCN(Cc2ccccc2)CCN1Cc1cccc(F)c1` [CBK284466], the viability at 28.5 h, 10 µM was found to be 96.4%.
Take `NC(=O)c1c(NC(=O)COc2ccccc2[N+](=O)[O-])sc2c1CCC2` [CBK262819]: the viability at 28.5 h, 10 µM was found to be 105%.
With `CCOC(=O)C1CCN(S(=O)(=O)c2ccc(C(C)(C)C)cc2)CC1` [CBK051240], the viability at 28.5 h, 10 µM was determined as 83.5%.
`CCOC(=O)N[C@@H](CC1CCCCC1)C(=O)NCCc1ccc(S(N)(=O)=O)cc1` [CBK015131]: the viability at 28.5 h, 10 µM turned out to be 106%.
In the case of `CC(NC(=O)Cc1ccc(-c2ccccc2)cc1)c1cccnc1` (centres unmarked) [CBK295147], the viability at 28.5 h, 10 µM was found to be 95%.
`COc1ccc(NC(=O)CSc2nc(C)c(Cc3ccc(O)cc3)[nH]2)cc1` [CBK291171]: the viability at 28.5 h, 10 µM worked out at 95.4%.
For the molecule `CCOC(=O)c1ccc(NC(=O)N2CCC3(CC2)NC(=O)Cc2ccccc23)cc1` [CBK047362], the viability at 28.5 h, 10 µM is 107%.
Regarding `Nc1cccc(-c2cncc(NCC3CCOCC3)n2)c1` [CBK037221], the viability at 28.5 h, 10 µM turned out to be 96.8%.
In the case of `CC(=O)Nc1ccc(-c2ccc(C(=O)NCC3COc4ccccc4O3)cn2)cc1` (centres unmarked) [CBK158832] it was 99.3%.
Regarding `Cn1cc(C(=O)NC(Cc2cccs2)c2ccccn2)ccc1=O` (centres unmarked) [CBK285209], the viability at 28.5 h, 10 µM came to 112%.
In the case of `Cc1ccc(C2(C(=O)NCCn3ccnc3C)CCOCC2)cc1` [CBK281858] it was 95%; in that of `C(#Cc1ccc(-c2cc[nH]n2)s1)c1ccccc1` [CBK023413], 118%.
In the case of `C[C@H](Cn1nc2c(cc1=O)CCCCC2)NC(=O)C1CCCC1` [CBK284546] it was 83.2%; in that of `COc1cccc(-n2ccn(C(=O)CCC3CCCC3)c2=O)c1` [CBK106625], 91.1%; in that of `CNCC(=O)N(CCc1cc(C(F)(F)F)cc(C(F)(F)F)c1)c1ccc2c(c1)OCO2` [CBK001038T], 120%.
Under `c1csc(CCN2CCC3(C2)NCCc2c3[nH]c3ccccc23)c1` (centres unmarked) [CBK040196] stands 111%.
For the molecule `CN(C)S(=O)(=O)c1ccc(C(=O)C2=C(O)C(=O)N(Cc3cccnc3)C2c2ccc(F)cc2)cc1` (centres unmarked) [CBK264715], the viability at 28.5 h, 10 µM stood at 94%.
`OCC1CCCN1c1cncc(-c2cccc3ccccc23)n1` (centres unmarked) [CBK065509]: the viability at 28.5 h, 10 µM stood at 91.1%.
In the case of `CCN1CCN(Cc2nc3c(c(=O)n(C)c(=O)n3C)n2Cc2c(F)cccc2Cl)CC1` [CBK269236], the viability at 28.5 h, 10 µM was 108%.
`CCN(Cc1ccc(C#N)cc1F)C(=O)NC(C)c1nncn1C` (centres unmarked) [CBK305888]: the viability at 28.5 h, 10 µM was determined as 119%.
For `COc1ccc(C)cc1S(=O)(=O)Nc1cc(N2CCN(CC3CC3)CC2)c2occc2c1` [CBK073624C], the viability at 28.5 h, 10 µM was found to be 94.2%.
Regarding `O=C(NCc1ccc(Cl)c(Cl)c1)N1CCN(Cc2ccccc2)CC1` [CBK155624], the viability at 28.5 h, 10 µM came to 85.3%.
As for `O=C(Nc1ccc2[nH]ccc2c1)c1c(F)ccc(Cl)c1F` [CBK159673], the viability at 28.5 h, 10 µM came to 78.6%.
Take `Cc1cc2c(s1)c1cnn(Cc3cccnc3)c(=O)c1n2C` [CBK284154]: the viability at 28.5 h, 10 µM amounted to 79.1%.
In the case of `CCc1c(C)nc(N)nc1N1N=C1SC(C(C)=O)C(C)=O` [CBK268558] it was 99.4%; in that of `N#Cc1cccc(Cn2cc(NC(=O)NCCc3cccs3)cn2)c1` [CBK043824], 94.9%; in that of `Cn1c2ccccc2c2nnc(NCCCCO)nc21` [CBK023366], 98.8%.
On to `Cc1cc(C)nc(NS(=O)(=O)c2ccc(Nc3ncnc(N)c3[N+](=O)[O-])cc2)n1` [CBK267217], for which the viability at 28.5 h, 10 µM amounted to 96.6%.
As to `O=C(O)c1ccccc1OCCCCOc1cccc2cccnc12` [CBK264136], the viability at 28.5 h, 10 µM was 87.2%.
As to `CC(=O)NCC(=O)N(c1ccccc1)C1(C(=O)NC(c2ccccc2)c2ccccc2)CCCC1` [CBK100884], the viability at 28.5 h, 10 µM was 102%.
As to `COc1ccc(-c2c[n+]3ccccc3c(=O)[nH]2)cc1` [CBK011078B], the viability at 28.5 h, 10 µM was determined as 93.8%.
In the case of `Cc1nc(CN2C(=O)CC3(C2=O)C(=O)N(CCCCOc2ccccc2)c2ccccc23)cs1` (centres unmarked) [CBK076103] it was 102%.
As for `CC(C)CCNC(=O)c1c(O)c2ccccc2[nH]c1=O` [CBK159975], the viability at 28.5 h, 10 µM was 91.7%.
For `Cc1cc(C)n(-c2ccc(C(=O)NCC3(C)COC3)cc2)n1` [CBK281756], the viability at 28.5 h, 10 µM amounted to 92.1%.
Consider `O=C(CS(=O)(=O)Cc1ccccc1)Nc1ccc(S(=O)(=O)N2CCOCC2)cc1` [CBK266658], for which the viability at 28.5 h, 10 µM worked out at 88.8%.
As to `Cc1nonc1/N=N/N(CC(=O)N1CCOCC1)c1nonc1C` [CBK262399], the viability at 28.5 h, 10 µM came to 103%.
Under `COc1ccccc1C(=O)N1CCN(Cc2cc(OC)c(O)c(OC)c2)CC1` [CBK263484] stands 101%.
`CC(C)(C)NC(=O)Cn1cncc1-c1ccc2c(c1)CC(C)(C)O2` [CBK281980]: the viability at 28.5 h, 10 µM stood at 113%.
On to `CC(C)c1ccc(NS(=O)(=O)c2ccc(F)c(C(=O)O)c2)cc1` [CBK297940], for which the viability at 28.5 h, 10 µM was found to be 104%.
In the case of `O=C(NC(=S)Nc1ccc(C(=O)O)c(Cl)c1)c1ccc(-c2ccc(Cl)cc2)o1` [CBK265063], the viability at 28.5 h, 10 µM was 105%.
Take `CC(C)(C#N)C(C)(C)c1nnn[nH]1` [CBK067072]: the viability at 28.5 h, 10 µM came to 85.1%.
Consider `COCCN1CC2=C(C1=O)C(c1ccc(F)cc1)NC(=O)N2` (centres unmarked) [CBK249447], for which the viability at 28.5 h, 10 µM amounted to 81.9%.
`CN1CCC[C@H]1C(=O)N1CCN(C(=O)c2ccco2)CC1` [CBK144449]: the viability at 28.5 h, 10 µM was 94.5%.
Take `COc1ccc([C@@H](O)[C@H]2CCCNC2)cc1` [CBK282298]: the viability at 28.5 h, 10 µM stood at 86.3%.
In the case of `CC(SC1CCc2ccccc2NC1=O)C(=O)O` (centres unmarked) [CBK286652] it was 87.1%; in that of `Cc1ccc(Cl)cc1N1CCN(CC(O)COCc2ccc3c(c2)OCO3)CC1` (centres unmarked) [CBK278308C], 106%.
Turning to `COc1cc(S(=O)(=O)NCCCn2ccnc2)ccc1Cl` [CBK269186], the viability at 28.5 h, 10 µM was 89.1%.
Regarding `CCOC(=O)CSc1nc2cc(Cl)c(Cl)cc2nc1NC(C)C` [CBK107173], the viability at 28.5 h, 10 µM stood at 97.1%.
For the molecule `O=C(O)CSCC(=O)Nc1ccc(Cl)cn1` [CBK057543], the viability at 28.5 h, 10 µM was 86.5%.
As for `Cc1cc(C)n(CC(C)NC(=O)C(c2ccccc2)N2CCCC2)n1` (centres unmarked) [CBK281645], the viability at 28.5 h, 10 µM came to 82.1%.
In the case of `Cc1ccccc1OCC(=O)Nc1c(C)n[nH]c1C` [CBK266046C], the viability at 28.5 h, 10 µM turned out to be 106%.
For `COc1ccccc1Cn1nc2nnc(-c3ccc(F)cc3)c(-c3ccc(F)cc3)n2c1=O` [CBK286184], the viability at 28.5 h, 10 µM stood at 97.7%.
Under `O=C(CSCc1c(Cl)cccc1Cl)Nc1ccc(-c2nnc(-c3ccccc3)o2)cc1` [CBK267817] stands 99.7%; under `Cc1nc2ccc(C(=O)O)cc2c2c1CC(CN)O2` (centres unmarked) [CBK286974], 97.7%; under `Cc1ccc(Cl)cc1NC(=O)c1cnc2scc(C)n2c1=O` [CBK287464], 98.7%.
As to `O=C(COc1cccc2ccccc12)NNC(=O)Cc1ccc(Cl)cc1` [CBK262988], the viability at 28.5 h, 10 µM turned out to be 112%.
As to `Fc1ccc(CCNC(=S)NC2CCCC2)cc1` [CBK266175], the viability at 28.5 h, 10 µM worked out at 99.9%.
As to `CN1CCC(O)(Cn2cnc3cc(-c4ccc(F)cc4)sc3c2=O)CC1` [CBK307434], the viability at 28.5 h, 10 µM came to 101%.
For `Cc1cc2nccc([C@H]3CC[C@H](CNC(=O)C(C)C)CC3)n2n1` [CBK283475], the viability at 28.5 h, 10 µM was determined as 94.9%.
On to `CC(NC(=O)Cn1cnc2ccccc21)c1ccccn1` (centres unmarked) [CBK281884], for which the viability at 28.5 h, 10 µM amounted to 96.7%.
In the case of `O=C(c1cccc(C(F)(F)F)c1)N1CCCCCC1` [CBK074291], the viability at 28.5 h, 10 µM is 98.4%.
Regarding `CSc1cccc(CN(C)C(=O)c2cc(C#N)c(=O)[nH]c2C)c1` [CBK306839], the viability at 28.5 h, 10 µM is 93%.
Regarding `CN1CCC(N(C)C(=O)c2ccc3nccnc3c2)CC1` [CBK269096], the viability at 28.5 h, 10 µM was found to be 108%.
Under `O=C(NN=C1CCCCCCCCCCC1)c1cc2ccccc2cc1O` [CBK261706] stands 102%; under `Cc1ccc(NC(=O)Cn2cnc3c(=O)n(C)c(=O)n(C)c32)c(O)c1` [CBK267002], 102%; under `Cc1cc2c(cc1Cl)C(=O)CC1(CCN(C(=O)C3CC(=O)OC3(C)C)CC1)O2` (centres unmarked) [CBK156514], 94.8%.
Take `O=C(c1ccccn1)N1CCCC(n2cnc3cc(F)ccc32)C1` (centres unmarked) [CBK284476]: the viability at 28.5 h, 10 µM came to 92.7%.
On to `Cc1cc(C(=O)Nc2sc(C)c(C)c2C(=O)NCc2cccnc2)no1` [CBK268134], for which the viability at 28.5 h, 10 µM turned out to be 100%.
On to `Cc1csc(N2CCC(NC3COc4ccc(F)cc4C3)CC2)n1` (centres unmarked) [CBK304751], for which the viability at 28.5 h, 10 µM was 101%.
Consider `CSCCN1CCN(c2nccnc2OCc2cccnc2)CC1` [CBK083146], for which the viability at 28.5 h, 10 µM was 91%.
On to `OC(CSc1ccccc1)CN1CCN(Cc2ccc3c(c2)OCO3)CC1` (centres unmarked) [CBK074761], for which the viability at 28.5 h, 10 µM turned out to be 87.2%.
Consider `CCOC(=O)C1(Cc2ccc(F)cc2F)CCCN(C(=O)CC)C1` (centres unmarked) [CBK307012], for which the viability at 28.5 h, 10 µM turned out to be 92.7%.
Turning to `CC(C)(CN)CN(Cc1ccccc1Br)C(=O)NCc1ccc(F)cc1` [CBK002469C], the viability at 28.5 h, 10 µM stood at 92.9%.
For `COc1ccc(C(=O)C2CCCCC23NCCN3)cc1` (centres unmarked) [CBK023140], the viability at 28.5 h, 10 µM amounted to 104%.
Take `O=C(CN1CCC(c2ccc(F)cc2)CC1)Nc1nccs1` [CBK283566]: the viability at 28.5 h, 10 µM is 90%.
As to `COc1ccccc1C(=O)Nc1sc2c(c1C(=O)NCc1ccco1)CCCC2` [CBK265105], the viability at 28.5 h, 10 µM turned out to be 100%.
